Experimental data published in patent publication US9360471B2, “Anti-aging agents and methods to identify them” (priority 2009, dated 2016).

Columns and labels:
[1] = system: NIH3T3 cells; test: TPA-induced transformation of NIH3T3 cells, colony formation in soft agar; type: cell-based, mouse; conditions: 10 μM TPA + AICAR (40 μM)
Experimental: (A) TPA (10 μM) was incubated with NIH3T3 cells in 0.39% soft agar in the presence of DMSO, 1 nM rapamycin, or 250 nM AICAR, and cultured for 7 days prior to counting colonies under a microscope. (B) The data represents the average of four experiments.
The experiment was done as in Example 19. In brief, 1500 NIH3T3 cells were mixed with 50 μL, of 0.4% agarose in culture medium (basal medium with 10% bovine fetal serum), layered on 96-well plates pre-covered with 50 μL of 0.8% agarose in culture medium. 100 μL of culture medium containing drugs to make final DMSO, 10 μM TPA, 40 μM AICAR, or 10 μM TPA+[…] was then added into the wells. The cells were incubated in a 37° C. incubator with 5% CO2 for more than 7 days. 50 μL of fresh medium was added every 5 days. Colonies were then counted under a microscope.
Transformation of NIH 3T3 cells is a good in vitro tumorigenesis assay, which measures colony formation in soft agar (termed as anchorage-independent growth). The […] TPA (12-O-Tetradecanoylphorbol 13-acetate) is known to stimulate protein kinase C (PKC), activate oncogenes and transform mouse embryonic fibroblast NIH3T3 cells. The TPA-induced anchorage-independent growth of NIH3T3 cell was employed as a tumorigenesis assay. […] Colonies were then counted under a microscope. […]

[2] = system: senescent WI-38 cells (human primary fibroblast); test: loss of senescent WI-38 cells, β-galactosidase (X-gal) staining; type: cell-based; conditions: 56 days in senescence; 50 pM rapamycin, 250 μM AICAR, 20 μg/mL EGCG, 1.6 μg/mL GSE, 20 μg/mL bilberry extract, 1 μM AITC, 12.5 μM 2-deoxyglucose; 3-day-on/7-day-off (AICAR 2-day-on/8-day-off)
Experimental: AICAR and reduced glucose treatment were incubated with cells in a 2-day-on/8-day-off cycle, while the rest of agents were in a 3-day-on/7-day-off cycle. The treatment started at passage 29. The medium was refreshed every 3 days. After 56-days from passage 31 (senescence), the cells were briefly fixed in 2% formaldehyde/0.2% glutaraldehyde and stained with 1 mg/mL 5-bromo-4-chloro-3-indolyl β-D-galactoside (X-gal) (in buffer containing 40 mM citric acid/sodium phosphate, pH 6.0, 5 mM potassium ferrocyanide, 5 mM potassium ferricyanide, 150 mM NaCl, and 2 mM MgCl2) at 37° C. for 18 hrs for the senescence marker, cellular β-galactosidase activity (blue in color picture and dark grey in black/white picture). Surviving senescent cells were viewed under a microscope.
This invention discloses that CR or rapamycin also prolongs senescence and prevents cell death induced by telomere dysfunction in human cells. Primary human embryonic lung fibroblasts WI-38 were used. […] Cells at passage 29 were treated with 50 pM rapamycin. The treatment was on a 10-day cycle of 3-day with and 7-day without rapamycin (also termed as 3-day-on/7-day-off cycle). […] Due to increased cytosol β-galactosidase activity, senescent cells are stained a blue color (shown as dark grey in black/white picture). […] Rapamycin didn't transform cells since the senescence marker was still present and cell growth was not observed.

[3] = system: NIH3T3 cells; test: mitochondrial mass in NIH3T3 cells treated with TPA; type: cell-based, mouse; conditions: 10 μM TPA+40 μM AICAR, two days
Experimental: NIH3T3 cells were incubated in DMEM medium (DMEM with 10% FCS, 100 units/mL penicillin, 100 μg/mL streptomycin and 2 mM glutamine) in the presence of control DMSO, 10 μM TPA, 1 nM rapamycin, 10 μM TPA+1 nM rapamycin, 40 μM AICAR, or 10 μM TPA+40 μM AICAR at 37° C. in a humidified atmosphere consisting of 95% air and 5% CO2 for two days. Cells were then harvested by trypsin and fixed by 60% ethanol. The cells were stained with MitoTracker Greeen FM in darkness for 30 min prior to FACS analysis. The data represents the average of a triplica-experiment.

[4] = system: human lymphoblastoid L40; test: mitochondrial mass in human lymphoblastoid L40, MitoTracker Green FM and FACS; type: cell-based; conditions: 2-day treatment; 10 μM LY294002, 2 μM DATS, 1 μM BITC, 1 μM PITC, 2 μg/mL resveratrol, 0.03 μM lycopene, 6.7 μM PEITC, 5 mM silibinin, 1.25 mM selenite, 2.5 mM genistein, 250 μg/mL GSE, 50 μg/mL EGCG, 3 mg/mL bilberry extract, 1 μM AITC, 50 pM rapamycin, 250 μM AICAR
Text: Mitochondrial mass was monitored by staining the 60% Ethanol-fixed cells with MitoTracker Green FM prior to FACS analysis.

[5] = system: WI-38 cells; test: MPP+ induced ROS in WI-38 cells, dehydrorhodamine 123 and FACS; type: cell-based, human; conditions: 200 μM MPP^+, 3 days
Experimental: MPP+ with various concentrations of rapamycin was incubated with WI-38 cells for 3 days. Cells were stained with dehydrorhodamine 123 in the dark for 30 min prior to FACS analysis.
MPP^+, an inhibitor of complex I (NADH CoQ1 reductase) in the mitochondrial respiratory chain, is a dopaminergic neurotoxin. It is commonly used to induce Parkinson's disease in […]. Human primary fibroblast WI-38 cells were treated with 200 μM MPP^+ for 3 days. Cells were then stained with dehydrorhodamine 123 in the dark for 30 min. Cells were then analyzed by FACS.

With `NC(=O)c1ncn([C@@H]2O[C@H](CO)[C@@H](O)[C@H]2O)c1N` [AICAR, 5-aminoimidazole-4-carboxamide-1-beta-D-ribofuranoside, reference compound] the “anchorage-independent growth of NIH3T3 cells induced by TPA” value [1] was “inhibits the anchorage-independent growth”, the “loss of the senescent WI-38 cells” value [2] was “prevented” and the “mitochondrial mass decrease induced by TPA” value [3] was “reverses the decrease in mitochondrial mass”. The mitochondrial mass [4] was “increased”.
For `C[n+]1ccc(-c2ccccc2)cc1` [MPP^+], the “ROS level in WI-38 cells” value [5] was “greatly increased ROS level”.
